{
  "source": "ChEMBL document CHEMBL1147136",
  "about": "“Constituents of Oxandra cf. xylopioides with anti-inflammatory activity” (J Nat Prod, 2007)",
  "key": {"Mus musculus [1]": {"system": "Mus musculus", "assay": "Reduction of carrageenan-induced paw edema volume in mouse at 125 mg/kg, po after 1 hr relative to control", "format": "functional", "design": "scale not given: the % may be the effect or the level left"}, "RAW264.7 [2]": {"system": "RAW264.7", "assay": "Cytotoxicity against mouse RAW264.7 cells at 100 uM by MTT assay", "format": "cell-based", "details": "raw264.7, 100 µM"}, "Mus musculus [3]": {"system": "Mus musculus", "assay": "Reduction of carrageenan-induced paw edema volume in mouse at 125 mg/kg, po after 5 hrs relative to control", "format": "functional", "design": "scale not given: the % may be the effect or the level left"}, "Mus musculus [4]": {"system": "Mus musculus", "assay": "Reduction of carrageenan-induced paw edema volume in mouse at 125 mg/kg, po after 3 hrs relative to control", "format": "functional", "design": "scale not given: the % may be the effect or the level left"}, "RAW264.7 [5]": {"system": "RAW264.7", "assay": "Effect on IL1-beta production in mouse RAW264.7 cells at 100 uM", "format": "functional"}, "RAW264.7 [6]": {"system": "RAW264.7", "assay": "Reduction of IL1-beta mRNA synthesis in mouse RAW264.7 cells at 100 uM", "format": "functional, cell-based"}},
  "note": "Active and inactive are the calls of the source. The calls are words filed in the database; no cut-off is given here.",
  "data": [
    {"smiles": "CC(C)[C@@]1(C)CCC([C@H]2CC[C@@]3(C)[C@@H]4CC[C@H]5C(C)(C)[C@@H](O)CC[C@@]56C[C@@]46CC[C@]23C)CO1", "note": "(stereo partly drawn) [BERENJENOL]", "values": [
      {"measurement": "Activity", "setting": "Mus musculus [1]", "value": 44, "unit": "%"},
      {"measurement": "Activity", "setting": "RAW264.7 [2]", "value": "Not Active"},
      {"measurement": "Activity", "setting": "Mus musculus [3]", "value": 51, "unit": "%"},
      {"measurement": "Activity", "setting": "Mus musculus [4]", "value": 64, "unit": "%"}
    ]},
    {"smiles": "COc1cc(C)c(OC)c(O)c1C(C)C", "note": "[ISOESPINTANOL]", "values": [
      {"measurement": "Activity", "setting": "RAW264.7 [2]", "value": "Not Active"},
      {"measurement": "Activity", "setting": "RAW264.7 [5]", "value": 72, "unit": "%"},
      {"measurement": "Activity", "setting": "Mus musculus [4]", "value": 43, "unit": "%"},
      {"measurement": "Activity", "setting": "RAW264.7 [6]", "value": "Active"}
    ]}
  ]
}
